Consider 26 compounds from patent publication US8546377B2 (AbbVie Inc., priority 2009, dated 2013).

Read-outs that look alike come from different tables or passages of the source.

One assay deals with T1, 5HT2B receptors (Homo sapiens, UniProt P41595).
T1 construct: expressed in transfected cells; host or cells: CHO-K1 cells
Briefly: Human 5-HT2B functional assay in CHO-K1 cells (calcium flux, FLIPR). Format: cell-based. Put shortly:
(§1)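 Frozen CHO-K1 cells over-expressing receptor, serum-starved overnight, loaded with Ca4 dye plus 2.5 mM probenecid for 60 min at room temperature. FLIPR fluorescence (ex 480/em 530 nm, 25° C) recorded 3 min after compound addition; 6-point 1:10 series from 10 μM, 0.2% DMSO. Response normalized to serotonin, 4-parameter fit gives EC50; Emax as % of serotonin.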

In the next assay the target is T2, 5HT2C receptors (Homo sapiens, UniProt P28335).
T2 sequence (P28335 33-458): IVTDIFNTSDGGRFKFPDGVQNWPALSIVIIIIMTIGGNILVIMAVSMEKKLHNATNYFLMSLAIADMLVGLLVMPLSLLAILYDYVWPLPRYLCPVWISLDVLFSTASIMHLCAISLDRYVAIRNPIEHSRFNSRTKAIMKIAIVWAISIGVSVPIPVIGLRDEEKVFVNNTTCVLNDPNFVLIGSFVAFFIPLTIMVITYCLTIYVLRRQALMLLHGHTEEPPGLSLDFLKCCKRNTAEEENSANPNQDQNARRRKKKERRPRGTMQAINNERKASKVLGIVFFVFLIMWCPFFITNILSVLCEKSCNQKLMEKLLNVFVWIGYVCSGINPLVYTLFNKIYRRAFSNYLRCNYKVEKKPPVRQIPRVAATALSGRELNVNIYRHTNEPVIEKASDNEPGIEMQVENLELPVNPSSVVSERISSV
Briefly: Human 5-HT2C functional assay in CHO-K1 cells (calcium flux, FLIPR). Particulars: for Emax (%), 5-HT2c Agonist Activity / Emax: percentage relative to the effect of serotonin. Set-up: expressed in transfected cells; host or cells: CHO-K1 cells. Format: cell-based. Put shortly:
as §1
A general note: Calcium flux is commonly read through the fluorescence of an indicator in the cells.

Where [1] appears, read: CHO-K1 cells over-expressing 5HT2B, calcium flux, read-out: EC50 (μM), 5-HT2B Agonist Activity.
The mark [2] stands for this setting: CHO-K1 cells over-expressing 5HT2C, calcium flux, read-out: EC50 (μM), 5-HT2c Agonist Activity.
Setting [3] is: CHO-K1 cells, read-out: Emax (%), 5-HT2c Agonist Activity.
The mark [4] stands for this setting: CHO-K1, read-out: Emax (%), 5-HT2c Agonist Activity, CHO-K1 cells.
Where [5] appears, read: CHO-K1 cells, percentage relative to the effect of serotonin, read-out: Emax (%), 5-HT2B Agonist Activity.
Where [6] appears, read: CHO-K1, read-out: Emax (%), 5-HT2B Agonist Activity.

T1 sequence (P41595 whole entry): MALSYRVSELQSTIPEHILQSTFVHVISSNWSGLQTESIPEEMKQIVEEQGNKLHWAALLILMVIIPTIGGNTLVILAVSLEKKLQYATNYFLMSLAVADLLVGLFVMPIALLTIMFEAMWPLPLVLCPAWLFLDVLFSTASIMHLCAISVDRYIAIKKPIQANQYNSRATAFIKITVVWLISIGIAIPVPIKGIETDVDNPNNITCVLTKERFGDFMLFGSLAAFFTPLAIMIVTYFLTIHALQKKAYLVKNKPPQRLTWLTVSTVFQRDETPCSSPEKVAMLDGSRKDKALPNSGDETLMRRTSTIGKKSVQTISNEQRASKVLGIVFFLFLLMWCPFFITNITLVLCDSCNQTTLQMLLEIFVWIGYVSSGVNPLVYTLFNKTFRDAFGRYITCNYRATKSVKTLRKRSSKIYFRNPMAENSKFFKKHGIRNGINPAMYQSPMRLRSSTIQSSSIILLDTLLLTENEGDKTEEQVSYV

Take `COc1ccc2c(c1)OCC[C@H]1CNCCN21` [Example 243, (4aS)-9-methoxy-2,3,4,4a,5,6-hexahydro-1H-pyrazino[2,1-d][1,5]benzoxazepine]: the EC50 (in general, the concentration that produces a half-maximal response) on 5HT2B receptors is greater than 10 µM; at 5HT2C receptors it was 0.05 µM. The “Emax (%), 5-HT2c Agonist Activity” value on 5HT2C receptors (CHO-K1 cells) turned out to be 55%.
For `O=C1C[C@H]2CNCCN2c2cc(OCCc3ccccc3F)ccc2N1` [Example 118, (4aS)-10-[2-(2-fluorophenyl)ethoxy]-1,2,3,4,4a,5-hexahydropyrazino[1,2-a][1,5]benzodiazepin-6(7H)-one], the results for the EC50 on 5HT2B receptors (setting [1]) and on 5HT2C receptors (setting [2]) were greater than 10 µM and 0.009 µM, respectively. For the same compound, the Emax (usually the size of the effect at its maximum, as opposed to the concentration needed) on 5HT2C receptors (setting [3]) was greater than 120%.
Turning to `CCC(Oc1ccc2c(c1)N1CCNC[C@@H]1CC(=O)N2)c1ccccc1` (stereo partly drawn) [Example 177, (4aS)-10-(1-phenylpropoxy)-1,2,3,4,4a,5-hexahydropyrazino[1,2-a][1,5]benzodiazepin-6(7H)-one], the EC50 on 5HT2B receptors (setting [1]) is greater than 10 µM; on 5HT2C receptors (setting [2]), 0.06 µM. The Emax on 5HT2C receptors (setting [3]) amounted to 110%.
Take `CN1CCN2c3ccccc3OCC[C@H]2C1` [Example 132, (4aS)-3-methyl-2,3,4,4a,5,6-hexahydro-1H-pyrazino[2,1-d][1,5]benzoxazepine]: the EC50 at 5HT2B receptors is greater than 10 µM; at 5HT2C receptors, 0.007 µM. Besides, the Emax on 5HT2C receptors (setting [4]) was greater than 120%.
Regarding `O=C1CC2CNCCN2c2cc(CCc3cc(F)cc(F)c3)ccc2N1` (stereo not drawn) [Example 147, 10-[2-(3,5-difluorophenyl)ethyl]-1,2,3,4,4a,5-hexahydropyrazino[1,2-a][1,5]benzodiazepin-6(7H)-one], the EC50 is greater than 10 µM at 5HT2B receptors (setting [1]) and 0.01 µM on 5HT2C receptors (setting [2]). At 5HT2C receptors (setting [3]), the Emax was greater than 120%.
In the case of `CN1C(=O)CC2CNCCN2c2ccc(Cl)cc21` (stereo not drawn) [Example 80, 9-chloro-7-methyl-1,2,3,4,4a,5-hexahydropyrazino[1,2-a][1,5]benzodiazepin-6(7H)-one], the EC50 at 5HT2B receptors (setting [1]) was greater than 10 µM; at 5HT2C receptors (setting [2]), 0.6 µM. Moreover, the Emax on 5HT2C receptors (setting [4]) came to 100%.
For the compound `COc1ccc2c(c1)OCC[C@H]1CNCCN21` [Example 134, (4aS)-9-methoxy-2,3,4,4a,5,6-hexahydro-1H-pyrazino[2,1-d][1,5]benzoxazepine], the EC50 on 5HT2B receptors (read-out: EC50 (μM), 5-HT2B Agonist Activity, CHO-K1 cells over-expressing 5HT2B, calcium flux) was greater than 10 µM; on 5HT2C receptors (read-out: EC50 (μM), 5-HT2c Agonist Activity, CHO-K1 cells over-expressing 5HT2C, calcium flux), 0.05 µM. Further, the “Emax (%), 5-HT2c Agonist Activity” value at 5HT2C receptors (CHO-K1 cells) came to 100%.
On to `CN1CCN2c3cccc(F)c3NC(=O)CC2C1` (stereo not drawn) [Example 79, 8-fluoro-3-methyl-1,2,3,4,4a,5-hexahydropyrazino[1,2-a][1,5]benzodiazepin-6(7H)-one], for which the EC50 at 5HT2B receptors was greater than 10 µM; at 5HT2C receptors it was 0.03 µM. Further, on 5HT2C receptors (setting [4]), the Emax is 100%.
For the compound `O=C1CC2CNCCN2c2cc(COc3ccccc3)ccc2N1` (stereo not drawn) [Example 111, 10-(phenoxymethyl)-1,2,3,4,4a,5-hexahydropyrazino[1,2-a][1,5]benzodiazepin-6(7H)-one], the EC50 on 5HT2B receptors (setting [1]) is 0.7 µM; on 5HT2C receptors (setting [2]), 0.02 µM. For the same compound, the Emax at 5HT2B receptors (setting [5]) was 20%; on 5HT2C receptors (setting [3]), greater than 120%.
As to `[2H]c1ccc2c(c1)OCC[C@H]1CNCCN21` [Example 263, (4aS)-(9-^2H)-2,3,4,4a,5,6-hexahydro-1H-pyrazino[2,1-d][1,5]benzoxazepine], the EC50 at 5HT2B receptors was found to be 0.09 µM; at 5HT2C receptors it was 0.003 µM. Moreover, the Emax at 5HT2B receptors (setting [6]) is 15%; at 5HT2C receptors (setting [4]), 95%.
Consider `Cc1ccc2c(c1)NC(=O)CC1CNCCN21` (stereo not drawn) [Example 49, 9-methyl-1,2,3,4,4a,5-hexahydropyrazino[1,2-a][1,5]benzodiazepin-6(7H)-one], for which the values for the EC50 on 5HT2B receptors and at 5HT2C receptors were greater than 10 µM and 0.06 µM, respectively. Besides, the Emax on 5HT2C receptors (setting [4]) amounted to 100%.
Turning to `C1=C(c2ccc3c(c2)N2CCNC[C@@H]2CCO3)CCOC1` [Example 210, (4aS)-10-(3,6-dihydro-2H-pyran-4-yl)-2,3,4,4a,5,6-hexahydro-1H-pyrazino[2,1-d][1,5]benzoxazepine], the results for the EC50 on 5HT2B receptors (setting [1]) and on 5HT2C receptors (setting [2]) were 1 µM and 0.01 µM, respectively. In addition, the Emax was 20% on 5HT2B receptors (setting [5]) and greater than 120% on 5HT2C receptors (setting [3]).
As for `COc1cccc(-c2ccc3c(c2)N2CCNCC2CC(=O)N3)c1` (stereo not drawn) [Example 65, 10-(3-methoxyphenyl)-1,2,3,4,4a,5-hexahydropyrazino[1,2-a][1,5]benzodiazepin-6(7H)-one], the EC50 was greater than 10 µM at 5HT2B receptors (setting [1]) and 0.05 µM on 5HT2C receptors (setting [2]). Besides, the Emax on 5HT2C receptors (setting [3]) is greater than 120%.
For the compound `O=C1CC2CNCCN2c2cc(OCc3ccccc3C(F)(F)F)ccc2N1` (stereo not drawn) [Example 157, 10-{[2-(trifluoromethyl)benzyl]oxy}-1,2,3,4,4a,5-hexahydropyrazino[1,2-a][1,5]benzodiazepin-6(7H)-one], the EC50 was greater than 10 µM on 5HT2B receptors (setting [1]) and 0.0295 µM at 5HT2C receptors (setting [2]). Further, the Emax on 5HT2C receptors (setting [3]) was greater than 120%.
On the same counts, the results for `CC(C)c1cccc(-c2ccc3c(c2)N2CCNCC2CC(=O)N3)c1` (stereo not drawn) [Example 92, 10-(3-isopropylphenyl)-1,2,3,4,4a,5-hexahydropyrazino[1,2-a][1,5]benzodiazepin-6(7H)-one] are greater than 10 µM, 0.02 µM and greater than 120%.
Take `CC(C)=Cc1ccc2c(c1)N1CCNC[C@@H]1CCO2` [Example 208, (4aS)-10-(2-methylprop-1-en-1-yl)-2,3,4,4a,5,6-hexahydro-1H-pyrazino[2,1-d][1,5]benzoxazepine]: the EC50 came out at 0.1 µM on 5HT2B receptors (setting [1]) and 0.001 µM at 5HT2C receptors (setting [2]). Further, the Emax is 50% on 5HT2B receptors (setting [5]) and greater than 120% at 5HT2C receptors (setting [3]).
Turning to `Brc1cccc2c1OCC[C@H]1CNCCN21` [Example 236, (4aS)-8-bromo-2,3,4,4a,5,6-hexahydro-1H-pyrazino[2,1-d][1,5]benzoxazepine], the EC50 was 0.01 µM on 5HT2B receptors and 0.002 µM on 5HT2C receptors. For the same compound, the Emax at 5HT2B receptors (setting [6]) came to 10%; on 5HT2C receptors (setting [4]), 100%.
Consider `CC(O)c1cccc(-c2ccc3c(c2)OCC[C@H]2CNCCN32)c1` (stereo partly drawn) [Example 229, 1-{3-[(4aS)-2,3,4,4a,5,6-hexahydro-1H-pyrazino[2,1-d][1,5]benzoxazepin-9-yl]phenyl}ethanol], for which the EC50 on 5HT2B receptors (setting [1]) is greater than 10 µM; at 5HT2C receptors (setting [2]), 0.02 µM. Moreover, the Emax at 5HT2C receptors (setting [3]) came to 100%.
On to `O=C1CC2CNCCN2c2cccc(Cl)c2N1` (stereo not drawn) [Example 110, 8-chloro-1,2,3,4,4a,5-hexahydropyrazino[1,2-a][1,5]benzodiazepin-6(7H)-one], for which the EC50 at 5HT2B receptors is greater than 10 µM; on 5HT2C receptors, 0.005 µM. Further, the Emax at 5HT2C receptors (setting [4]) was greater than 120%.
The like results for `Clc1ccc2c(c1)OCC[C@H]1CNCCN21` [Example 179, (4aS)-9-chloro-2,3,4,4a,5,6-hexahydro-1H-pyrazino[2,1-d][1,5]benzoxazepine] were, in that order, greater than 10 µM, 0.008 µM and greater than 120%.
For the compound `CC(C)COc1cccc(-c2ccc3c(c2)N2CCNCC2CC(=O)N3)c1` (stereo not drawn) [Example 96, 10-(3-isobutoxyphenyl)-1,2,3,4,4a,5-hexahydropyrazino[1,2-a][1,5]benzodiazepin-6(7H)-one], the EC50 at 5HT2B receptors (setting [1]) is greater than 10 µM; at 5HT2C receptors (setting [2]), 0.02 µM. Further, at 5HT2C receptors (setting [3]), the Emax is greater than 120%.
In the case of `CCOC(=O)c1ccc2c(c1)N1CCNCC1CC(=O)N2` (stereo not drawn) [Example 50, ethyl 6-oxo-1,2,3,4,4a,5,6,7-octahydropyrazino[1,2-a][1,5]-benzodiazepine-10-carboxylate], the EC50 at 5HT2B receptors (setting [1]) was greater than 10 µM; on 5HT2C receptors (setting [2]) it was 0.2 µM. For the same compound, the Emax on 5HT2C receptors (setting [3]) was 80%.
For the compound `Cc1ccccc1-c1ccc2c(c1)N1CCNC[C@@H]1CCO2` [Example 189, (4aS)-10-(2-methylphenyl)-2,3,4,4a,5,6-hexahydro-1H-pyrazino[2,1-d][1,5]benzoxazepine], the values for the EC50 at 5HT2B receptors (setting [1]) and at 5HT2C receptors (setting [2]) were 1 µM and 0.03 µM, respectively. The results for the Emax on 5HT2B receptors (setting [5]) and on 5HT2C receptors (setting [3]) were 20% and greater than 120%, respectively.
Turning to `c1coc(-c2cccc3c2OCC[C@H]2CNCCN32)c1` [Example 251, (4aS)-8-(2-furyl)-2,3,4,4a,5,6-hexahydro-1H-pyrazino[2,1-d][1,5]benzoxazepine], the EC50 was greater than 10 µM on 5HT2B receptors (setting [1]) and 0.0001 µM on 5HT2C receptors (setting [2]). Also, at 5HT2C receptors (setting [3]), the Emax was found to be 90%.
For the compound `O=C1C[C@H]2CNCCN2c2cccc(F)c2N1` [Example 85, (4aS)-8-fluoro-1,2,3,4,4a,5-hexahydropyrazino[1,2-a][1,5]benzodiazepin-6(7H)-one], the values for the EC50 on 5HT2B receptors and on 5HT2C receptors were greater than 10 µM and 0.0051 µM, respectively. The Emax on 5HT2C receptors (setting [4]) is greater than 120%.
For `CCC(C)Oc1ccc2c(c1)N1CCNC[C@@H]1CC(=O)N2` (stereo partly drawn) [Example 174, (4aS)-10-sec-butoxy-1,2,3,4,4a,5-hexahydropyrazino[1,2-a][1,5]benzodiazepin-6(7H)-one], the EC50 on 5HT2B receptors (setting [1]) is greater than 10 µM; on 5HT2C receptors (setting [2]), 0.007 µM. Also, the Emax at 5HT2C receptors (setting [3]) was greater than 120%.
